Data taken from patent US20220330549A1, “USE OF N-BENZYLBENZAMIDE-BASED COMPOUND AS HERBICIDE” (Northwest A&F University, priority 2020, published 2022).

Key:
Assay type in all cases: in vivo
[1] = system: Humulus scandens; test: Herbicidal activity test for indoor pre-emergence soil treatment; conditions: 150 g a.i./ha, visual inspection 21 days after treatment
Method in brief: (§1)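 Compounds were formulated as 10% emulsifiable concentrates and sprayed onto the soil 24 h after sowing, at 150 g(a.i.)/ha. Soil was sandy loam (≤2% organic matter), with seeds under 0.5–2.0 cm cover, per NY/T 1155.3-2006. Visual 1–9 ratings relative to blank control were made after 21 days.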

[2] = system: Convolvulus arvensis; test: Field test for weed control in a corn field; conditions: 150 g a.i./ha, after treatment
Method in brief: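 Field trial of weed control against Convolvulus arvensis in corn, run following GB/T 17980.42-2000. Test agents were formulated as 10% emulsifiable concentrates and sprayed in water at 150 g(a.i.)/ha when corn plants had 2 to 5 leaves. Each treatment was replicated 4 times on 20 m^2 plots, and 25% mesotrione oil dispersion served as the control agent.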

[3] = system: Amaranthus retroflexus; test: Field test for weed control in a corn field; conditions: 150 g a.i./ha, 30 days after treatment
Method in brief: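 Field efficacy trial in a corn field following GB/T 17980.42-2000. Test compounds were formulated as 10% emulsifiable concentrates, diluted in water and sprayed post-emergence when corn had 2 to 5 leaves. Each treatment covered 20 m^2 with 4 replicates. A 25% mesotrione oil dispersion served as control. Damage to Amaranthus retroflexus was rated on a 1-9 scale against untreated blank plots.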

[4] = system: Acalypha australis; test: Field test for weed control in a corn field; conditions: 150 g a.i./ha, after treatment
Method in brief: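 Post-emergence field trial in a corn field following GB/T 17980.42-2000. Test compounds were formulated as 10% emulsifiable concentrates, diluted in water, and sprayed at 150 g(a.i.)/ha when corn had 2 to 5 leaves, with 4 replicates on 20 m^2 plots. Mesotrione 25% oil dispersion served as the control agent. Weed control was scored on a 1-9 scale.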

[5] = system: green bristlegrass; test: Field test for weed control in a corn field; conditions: 150 g a.i./ha, after treatment
Method in brief: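 Post-emergence weed control was tested in a corn field following GB/T 17980.42-2000. When the corn had 2 leaves to 5 leaves after sowing, 10% emulsifiable concentrates diluted in water were sprayed at 150 g(a.i.)/ha on 20 m^2 plots, four replicates per treatment. Effects on green bristlegrass were scored on a 1-9 damage scale relative to the blank control area.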

[6] = system: Solanum nigrum; test: Field test for weed control in a corn field; conditions: 150 g a.i./ha, 30 days after treatment
Method in brief: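 Post-emergence weed control was tested in a corn field following GB/T 17980.42-2000. Compounds were made into 10% emulsifiable concentrates, diluted in water and sprayed at 150 g(a.i.)/ha when corn had 2 to 5 leaves after sowing, in 20 m^2 plots with 4 replicates. Effects on Solanum nigrum were graded on a 1-9 scale relative to the blank control area.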

[7] = system: nutgrass flatsedge; test: Field test for weed control in a corn field; conditions: 150 g a.i./ha, after treatment
Method in brief: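 A corn field efficacy trial following GB/T 17980.42-2000 assessed post-emergence control of nutgrass flatsedge. Test compounds were formulated as 10% emulsifiable concentrates, diluted in water, and sprayed at 150 g(a.i.)/ha when the corn had 2 to 5 leaves. Each treatment had 4 replicates on 20 m^2 plots. Herbicidal activity was graded on a 1-9 scale by damage symptoms and severity.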

[8] = system: Digitaria sanguinalis; test: Field test for weed control in a corn field; conditions: 150 g a.i./ha, after treatment
Method in brief: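 Field trial in a corn field following GB/T 17980.42-2000. Test compounds were formulated as 10% emulsifiable concentrates, diluted in water and sprayed post-emergence at 150 g(a.i.)/ha when corn had 2 to 5 leaves, with 4 replicates on 20 m^2 plots. Control of Digitaria sanguinalis was scored on a 1-9 scale based on weed damage relative to the untreated blank area.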

[9] = system: Barnyard grass; test: Field test for weed control in a corn field; conditions: 150 g a.i./ha, 30 days after treatment
Method in brief: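 Corn-field efficacy trial following GB/T 17980.42-2000. Test compounds were formulated as 10% emulsifiable concentrates, diluted in water and sprayed post-emergence at 150 g(a.i.)/ha when corn had 2 to 5 leaves. Each treatment was replicated 4 times on 20 m^2 plots. Barnyard grass control was rated on a 1-9 damage scale.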

[10] = system: Chenopodium album; test: Field test for weed control in a corn field; conditions: 150 g a.i./ha, after treatment
Method in brief: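 A corn-field efficacy trial following GB/T 17980.42-2000 tested post-emergence control of Chenopodium album. Test compounds formulated as 10% emulsifiable concentrates were diluted in water and sprayed at 150 g(a.i.)/ha when the corn had 2 leaves to 5 leaves, on 20 m^2 plots with 4 replicates. Herbicidal activity was rated on a 1-9 scale by damage symptoms and severity.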

[11] = system: goosegrass; test: Field test for weed control in a corn field; conditions: 150 g a.i./ha, after treatment
Method in brief: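 Weed control efficacy against goosegrass was tested in a corn field following GB/T 17980.42-2000. Compounds formulated as 10% emulsifiable concentrates were diluted in water and sprayed post-emergence at 150 g(a.i.)/ha when corn had 2 to 5 leaves, with 4 replicates of 20 m^2 plots. Herbicidal activity was rated on a 1-9 scale by damage symptoms and severity.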

[12] = system: Portulaca oleracea; test: Field test for weed control in a corn field; conditions: 150 g a.i./ha, after treatment
Method in brief: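 Field efficacy trial in corn following GB/T 17980.42-2000. Test compounds were prepared as 10% emulsifiable concentrates, diluted in water, and sprayed at 150 g(a.i.)/ha when corn had 2 to 5 leaves after sowing. Plots were 20 m^2 with 4 replicates per treatment. Herbicidal activity was scored on a 1-9 scale from weed damage symptoms and severity.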

[13] = system: green bristlegrass; test: Herbicidal activity test for indoor pre-emergence soil treatment; parameters: key: level 1-9; higher = more weed remaining vs blank control; conditions: 150 g a.i./ha, visual inspection 21 days after treatment
Method in brief: as §1

[14] = system: Barnyard grass; test: as above; parameters: key: level 1-9; higher = more weed remaining vs blank control; conditions: 150 g a.i./ha, visual inspection 21 days after treatment
Method in brief: as §1

[15] = system: Piemarker; test: as above; parameters: key: level 1-9; higher = more weed remaining vs blank control; conditions: 150 g a.i./ha, visual inspection 21 days after treatment
Method in brief: as §1

[16] = system: Amaranthus retroflexus; test: as above; parameters: key: 1-9 levels; higher = more weed remaining vs blank control; conditions: 150 g a.i./ha, visual inspection 21 days after treatment
Method in brief: as §1

[17] = system: Digitaria sanguinalis; test: as above; parameters: key: 1-9 levels; higher = more weed remaining vs blank control; conditions: 150 g a.i./ha, visual inspection 21 days after treatment
Method in brief: as §1

[18] = system: Humulus scandens; test: Herbicidal activity test for indoor post-emergence spraying on stems and leaves; parameters: key: grade level by weed remaining vs blank control, e.g. 5 = 10.1-15%; conditions: 150 g a.i./ha, visual inspection 21 days after treatment
Method in brief: (§2)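 Visual inspection at 21 days after treatment gave a level rating, each level defined as a percentage band of the weed remaining in the blank control area. Plants were sprayed on stems and leaves after emergence, following NY/T 1155.4-2006.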

[19] = system: Amaranthus retroflexus; test: as above; parameters: key: grade level by weed remaining vs blank control, e.g. 5 = 10.1-15%; conditions: 150 g a.i./ha, visual inspection 21 days after treatment
Method in brief: as §2

[20] = system: green bristlegrass; test: as above; parameters: key: grade level by weed remaining vs blank control, e.g. 5 = 10.1-15%; conditions: 150 g a.i./ha, visual inspection 21 days after treatment
Method in brief: as §2

[21] = system: Digitaria sanguinalis; test: as above; parameters: key: grade level by weed remaining vs blank control, e.g. 5 = 10.1-15%; conditions: 150 g a.i./ha, visual inspection 21 days after treatment
Method in brief: as §2

[22] = system: Barnyard grass; test: as above; parameters: key: grade level by weed remaining vs blank control, e.g. 5 = 10.1-15%; conditions: 150 g a.i./ha, visual inspection 21 days after treatment
Method in brief: as §2

[23] = system: Piemarker; test: as above; parameters: key: grade level by weed remaining vs blank control, e.g. 5 = 10.1-15%; conditions: 150 g a.i./ha, visual inspection 21 days after treatment
Method in brief: as §2

[24] = system: Gramineae; test: Post-emergence herbicidal activity test in a paddy field; parameters: key: level scale; higher level = more weed left vs blank control; conditions: 150 g a.i./ha (penoxsulam control 250 g(a.i.)/h)
Method in brief: (§3)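 Efficacy was visually estimated 15 and 30 days after spraying, grading weed coverage relative to an untreated neighbouring plot (level 2 = 0 to 2.5%, level 9 = 67.6 to 100%). Treatments were 150 g(a.i.)/ha from 10% emulsifiable concentrates applied at the 4-5 leaf rice stage, four repeats of 50 m^2 each.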

[25] = system: Cyperaceae; test: as above; parameters: key: level scale; higher level = more weed left vs blank control; conditions: 150 g a.i./ha (penoxsulam control 250 g(a.i.)/h)
Method in brief: as §3

[26] = system: Broadleaf weed; test: as above; parameters: key: level scale; higher level = more weed left vs blank control; conditions: 150 g a.i./ha (penoxsulam control 250 g(a.i.)/h)
Method in brief: as §3

| SMILES | Herbicidal Activity Humulus scandens [1] | Post-emergence weed control effect, Convolvulus arvensis [2] | Post-emergence weed control effect, Amaranthus retroflexus [3] | Post-emergence weed control effect, Acalypha australis [4] | Post-emergence weed control effect, Green bristlegrass [5] | Post-emergence weed control effect, Solanum nigrum [6] | Post-emergence weed control effect, Nutgrass flatsedge [7] | Post-emergence weed control effect, Digitaria sanguinalis [8] | Post-emergence weed control effect, Barnyard grass [9] | Post-emergence weed control effect, Chenopodium album [10] | Post-emergence weed control effect, Goose grass [11] | Post-emergence weed control effect, Portulaca oleracea [12] | Herbicidal Activity Green bristlegrass [13] | Herbicidal Activity Barnyard grass [14] | Herbicidal Activity Piemarker [15] | Herbicidal Activity Amaranthus retroflexus [16] | Herbicidal Activity Digitaria sanguinalis [17] | Herbicidal Activity Humulus scandens [18] | Herbicidal Activity Amaranthus retroflexus [19] | Herbicidal Activity Green bristlegrass [20] | also measured |
| --- | --- | --- | --- | --- | --- | --- | --- | --- | --- | --- | --- | --- | --- | --- | --- | --- | --- | --- | --- | --- | --- |
| COc1ncccc1C(=O)NCc1ccc(F)cc1 [Compound A94] | 2 (equivalent to 0 to 2.5% of the weed in the blank control area) | 2 (equivalent to 0 to 2.5% of the weed in the blank control area) | 1 | 2 (equivalent to 0 to 2.5% of the weed in the blank control area) | 2 (equivalent to 0 to 2.5% of the weed in the blank control area) | 2 (equivalent to 0 to 2.5% of the weed in the blank control area) | 3 (equivalent to 2.6 to 5% of the weed in the blank control area) | 2 (equivalent to 0 to 2.5% of the weed in the blank control area) | 1 | 1 | 1 | 1 | 1 | 1 | 1 | 1 | 1 | 1 | 1 | 1 | Herbicidal Activity Digitaria sanguinalis [21]: 1; Herbicidal Activity Barnyard grass [22]: 1; Herbicidal Activity Piemarker [23]: 1; Herbicidal activity 15 days after treatment Gramineae [24]: 2 (equivalent to 0 to 2.5% of the weed in the blank control area); Herbicidal activity 30 days after treatment Gramineae [24]: 2 (equivalent to 0 to 2.5% of the weed in the blank control area); Herbicidal activity 15 days after treatment Cyperaceae [25]: 1; Herbicidal activity 30 days after treatment Cyperaceae [25]: 2 (equivalent to 0 to 2.5% of the weed in the blank control area); Herbicidal activity 15 days after treatment Broadleaf weed [26]: 1; Herbicidal activity 30 days after treatment Broadleaf weed [26]: 1 |
| Cc1cccc(C(=O)NCc2cccc(F)c2)c1 [Compound B01] | 2 (equivalent to 0 to 2.5% of the weed in the blank control area) | 2 (equivalent to 0 to 2.5% of the weed in the blank control area) | 1 | 2 (equivalent to 0 to 2.5% of the weed in the blank control area) | 1 | 2 (equivalent to 0 to 2.5% of the weed in the blank control area) | 2 (equivalent to 0 to 2.5% of the weed in the blank control area) | 1 | 1 | 1 | 1 | 1 | 1 | 2 (equivalent to 0 to 2.5% of the weed in the blank control area) | 2 (equivalent to 0 to 2.5% of the weed in the blank control area) | 1 | 1 | 1 | 1 | 1 | Herbicidal Activity Digitaria sanguinalis [21]: 1; Herbicidal Activity Barnyard grass [22]: 2 (equivalent to 0 to 2.5% of the weed in the blank control area); Herbicidal Activity Piemarker [23]: 1; Herbicidal activity 15 days after treatment Gramineae [24]: 2 (equivalent to 0 to 2.5% of the weed in the blank control area); Herbicidal activity 30 days after treatment Gramineae [24]: 2 (equivalent to 0 to 2.5% of the weed in the blank control area); Herbicidal activity 15 days after treatment Cyperaceae [25]: 2 (equivalent to 0 to 2.5% of the weed in the blank control area); Herbicidal activity 30 days after treatment Cyperaceae [25]: 2 (equivalent to 0 to 2.5% of the weed in the blank control area); Herbicidal activity 15 days after treatment Broadleaf weed [26]: 1; Herbicidal activity 30 days after treatment Broadleaf weed [26]: 2 (equivalent to 0 to 2.5% of the weed in the blank control area) |
